Counter-ions that a name gives are not always drawn. A value given as a limit tells only on which side of the number the result lay.

Broadly, the melting point is the temperature of the solid-liquid transition. Turning to `O=Cc1c2n(c3cc(Br)ccc13)CCNCC2`, the melting point fell in the range of 186 to 188 °C.

On to `CN1CCc2cc3ccccc3n2CC1`, for which the melting point is 59 to 60 °C.

Regarding `CCN1CCc2cc3ccccc3n2CC1`, the melting point lay within 44 to 46 °C. The result for `NCCc1c2n(c3ccccc13)CCNCC2` reads 77 to 80 °C. The result for `COc1ccc(NC(=O)C(=O)c2c3n(c4ccccc24)CCNCC3)cc1` reads 177 to 180 °C; that for `COc1ccc(NC(=O)C(=O)c2c3n(c4ccccc24)CCNCC3)cc1Cl`, 221 to 223 °C; that for `O=C(Nc1ccccc1)C(=O)c1c2n(c3ccccc13)CCNCC2`, 157 to 160 °C.

In turn, `O=Cc1c2n(c3ccccc13)CCNCC2` had a melting point of 167 to 168 °C. The molecule `NC(=O)C(=O)c1c2n(c3ccccc13)CCNCC2` had a melting point of 214 to 215 °C. The result for `O=C(c1c2n(c3ccccc13)CCNCC2)C(F)(F)F` reads 131 to 133 °C; that for `O=C(Nc1ccc(F)cc1F)C(=O)c1c2n(c3ccccc13)CCNCC2`, 184.5 to 185.5 °C; that for `N#Cc1c2n(c3ccccc13)CCNCC2`, 161 to 164 °C. Regarding `CCCN1CCc2cc3ccccc3n2CC1` (as salt: hydrochloride), the melting point fell in the range of 257 to 259 °C. As for `Brc1ccc2cc3n(c2c1)CCNCC3` (as salt: hydrochloride), the figure is 292 to 295 °C. As for `Clc1c2n(c3ccccc13)CCNCC2` (as salt: hydrochloride), the figure is greater than 250 °C; as for `CC(C)(C)OC(=O)N1CCc2cc3ccccc3n2CC1` [Example 51, tert-butyl 1,2,4,5-tetrahydro-3H-[1,4]diazepino[1,7-a]indole-3-carboxylate], 129 to 132 °C. Turning to `O=[N+]([O-])/C=C/c1c2n(c3ccccc13)CCNCC2` [Example 52, 11-[(E)-2-nitroethenyl]-2,3,4,5-tetrahydro-1H-[1,4]diazepino[1,7-a]indole], the melting point is 225 to 226 °C.
